Calls of active or inactive are those of the source.
Columns and labels:
Human betaherpesvirus 5 = assay: Compound was tested for antiviral activity against HCMV; Not active; format: functional, organism-based
MDCK [1] = assay: Compound was tested for antiviral activity against influenza B in MDCK cells at concentration of 100 uM; Not active; format: functional, cell-based; settings: Canis lupus familiaris
Human alphaherpesvirus 2 = assay: Compound was tested for antiviral activity against HSV-2; Not active; format: functional, organism-based
Human alphaherpesvirus 3 = assay: Compound was tested for antiviral activity against VZV; Not active; format: functional, organism-based
MDCK [2] = assay: Compound was tested for antiviral activity against influenza A in MDCK cells at concentration of 100 uM; Not active; format: functional, cell-based; settings: Canis lupus familiaris
[3] = system: Human immunodeficiency virus 1; assay: Compound was tested for antiviral activity against HIV-1; Not active; format: functional

Measured: Activity

NC(=O)c1ncn([C@@H]2O[C@H](CO)C(O)[C@H]2F)n1 (single isomer, unassigned)
inactive: all assays above

NC(=O)c1ncn(C2O[C@H](CO)C(O)[C@H]2F)n1 (single isomer, unassigned)
inactive: all assays above

Reference: ChEMBL document CHEMBL1150542, “Enzymatic synthesis and antiviral ativity of 2-deoxy-2-fluoro-ribavirin” (Bioorg Med Chem Lett, 1996)
